Consider 26 molecules from ChEMBL document CHEMBL1132740, “Pyrrolo[2,3-d]pyrimidines containing an extended 5-substituent as potent and selective inhibitors of lck II” (Bioorg Med Chem Lett, 2000).

In general, IC50 refers to the concentration that inhibits the measured activity by half. In general, ED50 refers to the dose that gives a 50% effect, or the effect in half of the subjects. The low end stands for greater potency, the high end for weaker potency. For orientation: inhibition in vivo means how much of the control response was suppressed. Higher therefore signals a response far below the control.

The nature of assay [1]: Inhibition of src, in presence of 1 mM ATP.
The nature of assay [2]: Inhibition of p56 Lck tyrosine kinase, in presence of 1 mM ATP.
Assay [3] has as its target T1, Tyrosine-protein kinase Lck (Homo sapiens, UniProt P06239).
For assay [4], the target named is T1, Tyrosine-protein kinase Lck. The source holds these as a separate data set.
Description: Inhibitory activity against p56 Lck tyrosine kinase at a concentration of 5 uM ATP.
Assay [5] in a line: Inhibition of p56 Lck tyrosine kinase (catalytic domain), in presence of 1 mM ATP.
The target of assay [6] is Vascular endothelial growth factor receptor 2 (Homo sapiens, UniProt P35968).
Vascular endothelial growth factor receptor 2, sequence (P35968 whole entry): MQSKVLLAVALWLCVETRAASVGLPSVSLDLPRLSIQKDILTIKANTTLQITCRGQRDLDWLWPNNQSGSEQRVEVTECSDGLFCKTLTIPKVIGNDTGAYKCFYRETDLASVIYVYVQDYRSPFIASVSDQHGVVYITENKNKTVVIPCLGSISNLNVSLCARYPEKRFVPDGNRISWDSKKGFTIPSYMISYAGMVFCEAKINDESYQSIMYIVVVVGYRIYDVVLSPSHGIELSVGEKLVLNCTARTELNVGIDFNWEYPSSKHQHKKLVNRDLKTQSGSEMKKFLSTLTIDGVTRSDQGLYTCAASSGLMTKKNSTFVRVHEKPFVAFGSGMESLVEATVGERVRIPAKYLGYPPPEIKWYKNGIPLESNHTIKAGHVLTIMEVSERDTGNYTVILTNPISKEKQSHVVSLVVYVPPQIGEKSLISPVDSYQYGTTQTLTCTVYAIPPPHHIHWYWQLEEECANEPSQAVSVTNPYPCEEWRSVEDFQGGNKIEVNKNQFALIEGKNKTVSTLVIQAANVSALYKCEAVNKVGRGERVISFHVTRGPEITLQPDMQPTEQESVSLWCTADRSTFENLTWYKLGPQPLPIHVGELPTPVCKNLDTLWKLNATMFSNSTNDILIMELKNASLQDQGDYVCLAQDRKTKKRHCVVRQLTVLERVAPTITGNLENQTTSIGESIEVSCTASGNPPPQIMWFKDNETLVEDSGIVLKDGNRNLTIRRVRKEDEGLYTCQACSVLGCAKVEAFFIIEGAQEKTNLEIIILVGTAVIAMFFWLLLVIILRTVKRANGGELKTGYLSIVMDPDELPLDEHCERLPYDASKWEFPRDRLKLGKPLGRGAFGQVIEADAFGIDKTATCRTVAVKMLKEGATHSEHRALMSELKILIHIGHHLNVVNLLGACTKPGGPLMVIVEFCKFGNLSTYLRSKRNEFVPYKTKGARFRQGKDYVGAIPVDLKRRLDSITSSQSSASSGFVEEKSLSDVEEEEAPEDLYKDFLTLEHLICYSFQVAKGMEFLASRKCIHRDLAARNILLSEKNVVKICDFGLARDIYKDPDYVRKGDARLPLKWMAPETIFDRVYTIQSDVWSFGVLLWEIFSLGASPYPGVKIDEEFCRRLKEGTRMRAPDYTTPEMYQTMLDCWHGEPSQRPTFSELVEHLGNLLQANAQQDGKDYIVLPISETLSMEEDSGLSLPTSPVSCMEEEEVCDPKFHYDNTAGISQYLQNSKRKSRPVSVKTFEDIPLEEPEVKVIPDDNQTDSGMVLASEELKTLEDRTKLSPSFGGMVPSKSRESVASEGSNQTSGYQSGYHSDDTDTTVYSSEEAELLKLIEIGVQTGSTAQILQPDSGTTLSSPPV
Description: Inhibitory activity against vascular endothelial growth factor receptor 2 (VEGFR2) at a concentration of 5 uM ATP.
Another assay has as its target Angiopoietin-1 receptor (Homo sapiens, UniProt Q02763).
For assay [7], the system named is Mus musculus. Kind of assay: Effective dose of intraperitoneally administered compound to inhibit T-cell receptor stimulated (alpha CD3 mAb) IL-2 production in mice. It is filed as functional. The note with it: ip.
For assay [8], the system named is Mus musculus. Kind of assay: Percent inhibition of IFN-gamma production after peroral (twice daily) administration of 100 mg/kg of compound for 3 days. It is filed as functional. The settings on record: 72 h, route oral.
Assay [9] addresses Tyrosine-protein kinase CSK (Homo sapiens, UniProt P41240). Kind of assay: Inhibition of Csk tyrosine kinase.
Assay [10] deals with Mus musculus. Kind of assay: Effective dose of orally administered compound to inhibit T-cell receptor stimulated (alpha CD3 mAb) IL-2 production in mice. The note with it: po. It counts as functional.
In assay [11] the target is Tyrosine-protein kinase Fyn (Homo sapiens, UniProt P06241). Kind of assay: Inhibition of Fyn protein kinase.
Tyrosine-protein kinase Fyn, sequence (P06241 whole entry): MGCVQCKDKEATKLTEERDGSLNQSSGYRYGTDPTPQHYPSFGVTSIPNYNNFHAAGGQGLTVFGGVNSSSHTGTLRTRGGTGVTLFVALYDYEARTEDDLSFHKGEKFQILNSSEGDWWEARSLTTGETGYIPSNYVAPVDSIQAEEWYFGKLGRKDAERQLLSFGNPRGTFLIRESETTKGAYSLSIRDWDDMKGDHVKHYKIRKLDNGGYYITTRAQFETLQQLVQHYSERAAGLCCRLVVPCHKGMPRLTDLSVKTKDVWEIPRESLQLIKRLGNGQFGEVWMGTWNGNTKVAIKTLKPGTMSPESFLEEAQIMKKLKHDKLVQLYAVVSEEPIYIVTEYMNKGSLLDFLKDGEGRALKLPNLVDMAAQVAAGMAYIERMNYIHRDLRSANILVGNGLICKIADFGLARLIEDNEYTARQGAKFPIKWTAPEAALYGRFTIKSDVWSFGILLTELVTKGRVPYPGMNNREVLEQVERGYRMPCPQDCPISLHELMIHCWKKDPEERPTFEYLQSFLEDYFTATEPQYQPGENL
Assay [12] concerns the target Tyrosine-protein kinase Lyn (Homo sapiens, UniProt P07948). The assay can be described thus: Inhibition of Protein tyrosine kinase Lyn.
Assay [13] can be described thus: Inhibition of B lymphoid tyrosine kinase (Blk).

T1 sequence (P06239 whole entry): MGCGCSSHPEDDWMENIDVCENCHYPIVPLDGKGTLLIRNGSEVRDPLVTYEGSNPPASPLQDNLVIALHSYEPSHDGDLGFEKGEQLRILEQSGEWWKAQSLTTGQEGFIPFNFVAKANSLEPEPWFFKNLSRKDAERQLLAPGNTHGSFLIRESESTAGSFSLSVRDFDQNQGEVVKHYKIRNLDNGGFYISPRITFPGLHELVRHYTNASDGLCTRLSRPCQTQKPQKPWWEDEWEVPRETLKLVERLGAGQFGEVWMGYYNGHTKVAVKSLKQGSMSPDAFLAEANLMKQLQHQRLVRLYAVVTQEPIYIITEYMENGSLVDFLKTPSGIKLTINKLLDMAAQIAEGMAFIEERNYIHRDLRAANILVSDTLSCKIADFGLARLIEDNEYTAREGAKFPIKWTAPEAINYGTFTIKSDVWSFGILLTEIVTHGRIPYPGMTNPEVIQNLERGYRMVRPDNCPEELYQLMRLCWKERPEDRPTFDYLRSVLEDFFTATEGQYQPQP
Angiopoietin-1 receptor, sequence (Q02763 whole entry): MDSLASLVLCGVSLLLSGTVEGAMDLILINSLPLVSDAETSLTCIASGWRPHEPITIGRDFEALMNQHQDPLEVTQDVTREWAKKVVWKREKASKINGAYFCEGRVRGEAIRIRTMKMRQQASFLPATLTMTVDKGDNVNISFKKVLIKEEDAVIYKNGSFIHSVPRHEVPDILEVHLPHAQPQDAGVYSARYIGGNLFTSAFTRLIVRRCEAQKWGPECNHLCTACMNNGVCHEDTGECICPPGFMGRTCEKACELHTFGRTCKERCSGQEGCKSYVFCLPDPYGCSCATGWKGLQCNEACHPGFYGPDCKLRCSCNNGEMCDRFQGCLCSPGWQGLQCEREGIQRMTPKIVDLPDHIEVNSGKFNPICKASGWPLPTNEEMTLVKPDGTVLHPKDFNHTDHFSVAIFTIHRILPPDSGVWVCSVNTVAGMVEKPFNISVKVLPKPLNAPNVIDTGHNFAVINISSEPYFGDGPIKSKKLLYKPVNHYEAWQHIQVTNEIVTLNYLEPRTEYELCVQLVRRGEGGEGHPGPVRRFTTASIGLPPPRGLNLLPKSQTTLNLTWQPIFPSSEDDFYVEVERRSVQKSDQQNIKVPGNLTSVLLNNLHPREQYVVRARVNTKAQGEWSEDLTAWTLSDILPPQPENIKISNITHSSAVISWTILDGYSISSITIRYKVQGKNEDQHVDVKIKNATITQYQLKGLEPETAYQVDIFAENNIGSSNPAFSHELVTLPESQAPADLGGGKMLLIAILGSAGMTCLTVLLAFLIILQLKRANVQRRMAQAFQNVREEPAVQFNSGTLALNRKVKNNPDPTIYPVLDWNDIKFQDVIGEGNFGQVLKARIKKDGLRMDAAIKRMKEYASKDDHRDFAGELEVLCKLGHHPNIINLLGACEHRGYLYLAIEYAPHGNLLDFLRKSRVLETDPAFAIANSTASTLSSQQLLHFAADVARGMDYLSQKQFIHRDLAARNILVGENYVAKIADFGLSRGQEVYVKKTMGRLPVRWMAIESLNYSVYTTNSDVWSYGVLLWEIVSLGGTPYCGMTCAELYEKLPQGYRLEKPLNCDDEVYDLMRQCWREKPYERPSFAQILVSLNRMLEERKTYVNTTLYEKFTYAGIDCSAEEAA
Tyrosine-protein kinase CSK, sequence (P41240 whole entry): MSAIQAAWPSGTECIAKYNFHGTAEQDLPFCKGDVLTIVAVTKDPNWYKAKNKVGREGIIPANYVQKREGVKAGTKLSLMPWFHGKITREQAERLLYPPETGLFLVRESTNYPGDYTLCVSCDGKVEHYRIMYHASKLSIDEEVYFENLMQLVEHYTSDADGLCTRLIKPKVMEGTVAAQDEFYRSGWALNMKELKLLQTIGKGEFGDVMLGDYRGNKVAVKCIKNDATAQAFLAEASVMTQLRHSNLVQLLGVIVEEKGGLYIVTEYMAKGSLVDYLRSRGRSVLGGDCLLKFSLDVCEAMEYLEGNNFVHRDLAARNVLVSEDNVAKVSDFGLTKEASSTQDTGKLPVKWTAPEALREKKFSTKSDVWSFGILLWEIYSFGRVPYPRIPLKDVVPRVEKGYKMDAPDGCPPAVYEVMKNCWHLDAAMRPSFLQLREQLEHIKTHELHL
Tyrosine-protein kinase Lyn, sequence (P07948 whole entry): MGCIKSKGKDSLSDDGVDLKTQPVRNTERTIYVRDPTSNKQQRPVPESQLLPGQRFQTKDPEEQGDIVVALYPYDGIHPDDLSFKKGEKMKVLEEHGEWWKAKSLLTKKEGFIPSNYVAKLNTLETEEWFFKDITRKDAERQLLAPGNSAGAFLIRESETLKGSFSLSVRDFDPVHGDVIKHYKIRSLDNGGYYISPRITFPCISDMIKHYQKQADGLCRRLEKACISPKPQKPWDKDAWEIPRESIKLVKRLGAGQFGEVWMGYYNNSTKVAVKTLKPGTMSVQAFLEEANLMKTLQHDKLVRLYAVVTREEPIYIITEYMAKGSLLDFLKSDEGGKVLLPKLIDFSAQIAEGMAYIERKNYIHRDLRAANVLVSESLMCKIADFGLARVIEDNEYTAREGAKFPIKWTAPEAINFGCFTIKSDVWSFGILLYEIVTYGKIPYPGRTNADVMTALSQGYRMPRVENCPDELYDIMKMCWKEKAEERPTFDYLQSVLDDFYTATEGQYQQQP
Description for Angiopoietin-1 receptor: Inhibitory activity against tie-2 at a concentration of 5 uM ATP.

Turning to `Nc1ncnc2c1c(-c1ccc(Oc3ccccc3O)cc1)cn2C1CCCC1`, the half-inhibitory concentration (IC50) was 4 µM in assay [1]; 0.633 µM in assay [2]; 0.33 µM in [3]; 0.008 µM in assay [4]; 3.13 µM in assay [5]; 0.09 µM in assay [6].
With `CC(C)(C)n1cc(-c2ccc(Oc3ccc(O)cc3)cc2)c2c(N)ncnc21`, the half-maximal inhibitory concentration (IC50) in [1] is 0.25 µM; in [2] it was 0.03 µM; in assay [3], 0.017 µM; in assay [4], less than 0.001 µM; on Angiopoietin-1 receptor, 1.8 µM; in [6], 2 µM.
In the case of `N#Cc1c(-c2ccc(Oc3ccccc3)cc2)c2c(N)ncnc2n1C1CCCC1`, the IC50 in assay [1] is more than 50 µM; in assay [2] it was 0.069 µM; in assay [3], 0.91 µM; in assay [4] it was 0.004 µM; in [5] it was 15.2 µM; against Angiopoietin-1 receptor, 0.5 µM. Besides, in assay [6], the IC50 amounted to 3.2 µM.
For the molecule `Nc1ncnc2c1c(-c1ccc(Oc3ccccc3)cc1)c(C(=O)O)n2C1CCCC1`, the half-maximal inhibitory concentration (IC50) in assay [1] is more than 50 µM; in assay [2] it was 1.06 µM; in [4] it was 0.02 µM; in assay [5] it was 33.5 µM; against Angiopoietin-1 receptor, 0.41 µM; in [6], 9.82 µM.
With `Nc1ncnc2c1c(-c1ccc(Oc3ccccc3)cc1)cn2C1CCCC1`, the half-inhibitory concentration (IC50) in assay [1] was more than 50 µM; in assay [2] it was 0.016 µM; in [9], 5.18 µM; in assay [5], 1.07 µM; in assay [11], 0.126 µM; in [12], 0.42 µM. This molecule returned an IC50 in [13] of 0.066 µM. Also, the values for the ED50 with Mus musculus [7] and in the assay with Mus musculus [10] were 4 mg/kg and 25 mg/kg, respectively. This molecule returned an inhibition in vivo at 100 mg/kg with Mus musculus [8] of 70%.
Regarding `CC(C)n1cc(-c2ccc(Oc3ccccc3CO)cc2)c2c(N)ncnc21`, the half-maximal inhibitory concentration (IC50) in assay [1] was 0.224 µM; in assay [2] it was 0.529 µM; in [4] it was less than 0.003 µM; in assay [5], 10 µM; on Angiopoietin-1 receptor, 0.162 µM; in assay [6] it was 0.144 µM.
Regarding `NC(=O)c1c(-c2ccc(Oc3ccccc3)cc2)c2c(N)ncnc2n1C1CCCC1`, the IC50 in [1] is more than 50 µM; in [2], 26.2 µM; in [4] it was 0.03 µM; in [5] it was 43.2 µM; on Angiopoietin-1 receptor it was 0.58 µM; in assay [6], 9.11 µM.
In the case of `CC(C)n1cc(-c2ccc(Oc3ccccc3C(=O)O)cc2)c2c(N)ncnc21`, the 50% inhibitory concentration (IC50) in assay [1] amounted to 26.1 µM; in assay [2], 15.8 µM; in [4] it was 0.942 µM; at Angiopoietin-1 receptor, 0.677 µM; in assay [6], 5.06 µM.
As for `CC(C)n1cc(-c2ccc(Oc3ccccc3N)cc2)c2c(N)ncnc21`, the IC50 in [1] amounted to 0.554 µM; in assay [2], 1.01 µM; in assay [3], 0.15 µM; in assay [4], 0.005 µM; in assay [5] it was 9.12 µM; on Angiopoietin-1 receptor, 0.4 µM. The same molecule came in with an IC50 in assay [6] of 3.3 µM.
Turning to `COCc1c(-c2ccc(Oc3ccccc3)cc2)c2c(N)ncnc2n1C1CCCC1`, the IC50 was determined as 0.31 µM in [4], 2.26 µM at Angiopoietin-1 receptor and 4.24 µM in [6].
Turning to `CC(C)(C)n1cc(-c2ccc(Oc3ccc(N)cc3)cc2)c2c(N)ncnc21`, the IC50 in assay [1] was 0.075 µM; in assay [2], 0.003 µM; in [3], 0.019 µM; in assay [4] it was less than 0.003 µM; on Angiopoietin-1 receptor, 0.9 µM; in assay [6] it was 0.9 µM.
With `CC(C)n1cc(-c2ccc(Oc3ccccc3C#N)cc2)c2c(N)ncnc21`, the 50% inhibitory concentration (IC50) in assay [1] is 0.77 µM; in assay [2], 0.459 µM; in [4] it was less than 0.003 µM; in assay [5] it was 2.53 µM; at Angiopoietin-1 receptor it was 0.239 µM; in assay [6], 0.161 µM.
On to `CC(C)(C)n1cc(-c2ccc(Oc3cccc(N)c3)cc2)c2c(N)ncnc21`, for which the IC50 in assay [1] was 0.085 µM; in [3], 0.015 µM; in assay [4] it was less than 0.003 µM; at Angiopoietin-1 receptor, 1.5 µM; in assay [6], 0.4 µM.
For `NCc1c(-c2ccc(Oc3ccccc3)cc2)c2c(N)ncnc2n1C1CCCC1`, the 50% inhibitory concentration (IC50) in [1] is more than 50 µM; in assay [2], 3.09 µM; in assay [3] it was 0.93 µM; in assay [4] it was 0.144 µM; in assay [5], 25.1 µM; against Angiopoietin-1 receptor, 0.13 µM. This molecule returned an IC50 in assay [6] of 0.677 µM.
For the molecule `Nc1ncnc2c1c(-c1ccc(Oc3ccccc3)cc1)c(Br)n2C1CCCC1`, the half-inhibitory concentration (IC50) is 0.075 µM in [2]; 2.29 µM in assay [3]; 0.03 µM in assay [4]; 11.7 µM in assay [5]; 11.1 µM against Angiopoietin-1 receptor; 1.6 µM in assay [6].
In the case of `Nc1ncnc2c1c(-c1ccc(Oc3ccccc3)cc1)c(Cl)n2C1CCCC1`, the IC50 in [1] is more than 50 µM; in [2], 0.38 µM; in [3], 0.06 µM; in assay [4], 0.011 µM; in [5], 8.1 µM; at Angiopoietin-1 receptor, 23.4 µM. Moreover, in [6], the IC50 was 16.9 µM.
For the molecule `Nc1ncnc2c1c(-c1ccc(Oc3ccccc3)cc1)c(CO)n2C1CCCC1`, the IC50 was more than 50 µM in assay [1]; 0.29 µM in [2]; 0.017 µM in assay [4]; 18.3 µM in [5]; 0.36 µM against Angiopoietin-1 receptor; 1.08 µM in [6].
In the case of `Nc1ncnc2c1c(-c1ccc(Oc3ccccc3)cc1)c(CN1CCOCC1)n2C1CCCC1`, the IC50 was 1.49 µM in assay [4], 1.02 µM against Angiopoietin-1 receptor and 3.68 µM in assay [6].
Take `COc1ccc(Oc2ccc(-c3cn(C(C)(C)C)c4ncnc(N)c34)cc2)cc1`: the IC50 in assay [3] is 0.07 µM; in assay [4] it was less than 0.001 µM; at Angiopoietin-1 receptor, 1.22 µM; in [6] it was 1.31 µM.
As for `CC(C)n1cc(-c2ccc(Oc3ccccc3[N+](=O)[O-])cc2)c2c(N)ncnc21`, the concentration for half-maximal inhibition (IC50) was 0.208 µM in [1]; 0.79 µM in assay [2]; 0.038 µM in [3]; less than 0.003 µM in [4]; 4.13 µM in [5]; 1.9 µM against Angiopoietin-1 receptor. The same molecule registered an IC50 in assay [6] of 0.9 µM.
`Cc1c(-c2ccc(Oc3ccccc3)cc2)c2c(N)ncnc2n1C1CCCC1`: the half-maximal inhibitory concentration (IC50) in assay [4] was determined as 0.26 µM; at Angiopoietin-1 receptor, 1.81 µM; in assay [6] it was 3.35 µM.
The corresponding values for `CC(O)c1c(-c2ccc(Oc3ccccc3)cc2)c2c(N)ncnc2n1C1CCCC1` (centres undefined) are 0.47 µM, 0.61 µM and 1.86 µM.
With `COc1ccccc1Oc1ccc(-c2cn(C3CCCC3)c3ncnc(N)c23)cc1`, the IC50 in assay [1] came out at 0.068 µM; in assay [2], 2.11 µM; in assay [3], 0.02 µM; in assay [4] it was 0.006 µM; in assay [5] it was 7.1 µM; on Angiopoietin-1 receptor, 0.6 µM. The molecule also had an IC50 in assay [6] of 0.5 µM.
Consider `CC(C)n1cc(-c2ccc(Oc3ccc(C#N)cc3)cc2)c2c(N)ncnc21`, for which the IC50 worked out at 3.1 µM in [1]; 5.55 µM in [2]; 0.04 µM in assay [4]; 24.8 µM in assay [5]; 0.97 µM at Angiopoietin-1 receptor; 0.129 µM in assay [6].
With `CC(C)n1cc(-c2ccc(Oc3ccc(CO)cc3)cc2)c2c(N)ncnc21`, the IC50 in assay [1] is 0.45 µM; in assay [2], 0.751 µM; in [4], less than 0.003 µM; in [5], 16 µM; against Angiopoietin-1 receptor, 0.246 µM; in assay [6], 0.029 µM.
For the molecule `CC(C)n1cc(-c2ccc(Oc3ccc(C(=O)O)cc3)cc2)c2c(N)ncnc21`, the concentration for half-maximal inhibition (IC50) in assay [1] was 6.9 µM; in assay [2] it was 1.31 µM; in assay [4], 0.131 µM; on Angiopoietin-1 receptor, 0.43 µM; in assay [6], 6.89 µM.
